Results published in PubChem BioAssay AID330 (DTP/NCI, 2004).
Inconclusive results and toxic doses are left out.

Test system: P388 leukemia ip, CD2F1 mice, survival T/C
Test: NCI In Vivo Anticancer Drug Screen. Data for tumor model P388 Leukemia (intraperitoneal) in CD2F1 (CDF1) mice
Conditions: endpoint: median survival time, higher = longer survival
Outline: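 Mice carrying the transplanted tumor received test compound or vehicle. Survival was recorded in each group, and the value is the treated-group measurement divided by that of the vehicle-treated control group.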

[1] = dose: 50.0 mg/kg/injection, schedule: Q01DX009 (ip), vehicle: saline with Tween-80
[2] = dose: 100.0 mg/kg/injection, schedule: Q01DX009 (ip), vehicle: saline with Tween-80
[3] = dose: 50.0 mg/kg/injection, schedule: Q01DX009 (ip), vehicle: Klucel (hydroxypropylcellulose) (HPC)
[4] = dose: 100.0 mg/kg/injection, schedule: Q01DX009 (ip), vehicle: Klucel (hydroxypropylcellulose) (HPC)
[5] = dose: 200.0 mg/kg/injection, schedule: Q01DX009 (ip), vehicle: Klucel (hydroxypropylcellulose) (HPC)

For `CC(=O)OC1CCC2(C)C(C1)CC(OC(C)=O)C1C2CC(OC(C)=O)C2(C)C(C(C)CC=C(c3ccccc3)c3ccccc3)CCC12` (stereo not drawn), the T/C [1] was 100 % of control, the T/C [2] was 98 % of control and the T/C (dose: 200.0 mg/kg/injection, schedule: Q01DX009 (ip), vehicle: saline with Tween-80) was 99 % of control.

`CN(C)c1ccc(/C=C/C2=[N+](C)c3ccccc3C2(C)C)cc1` was tested, and the T/C (dose: 0.03 mg/kg/injection, schedule: Q01DX009 (ip), vehicle: saline) was 110 % of control and the T/C (dose: 0.07 mg/kg/injection, schedule: Q01DX009 (ip), vehicle: saline) was 97 % of control.

With `CCC1(c2ccccc2)OCC(C2CCCCN2)O1` (stereo not drawn) the T/C [3] was 95 % of control and the T/C [4] was 95 % of control.

In the case of `CCCCCCCCCCCC#CC(=O)OC`, the T/C (dose: 50.0 mg/kg/injection, schedule: Q01DX009 (ip), vehicle: saline) is reported as 105 % of control, the T/C (dose: 100.0 mg/kg/injection, schedule: Q01DX009 (ip), vehicle: saline) is reported as 103 % of control and the T/C (dose: 200.0 mg/kg/injection, schedule: Q01DX009 (ip), vehicle: saline) is reported as 103 % of control.

In the case of `CCCCCCC1([N+](=O)[O-])CN(C)CC2CCCCN2C1` (stereo not drawn), the T/C (dose: 100.0 mg/kg/injection, schedule: Q04DX002 (ip), vehicle: saline) is reported as 109 % of control and the T/C (dose: 200.0 mg/kg/injection, schedule: Q04DX002 (ip), vehicle: saline) is reported as 97 % of control.

`CCOC1Oc2ccccc2-c2nc(C)c(C#N)cc21` (stereo not drawn) was tested, and the T/C (dose: 60.0 mg/kg/injection, schedule: Q01DX005 (ip), vehicle: saline with Tween-80) was 90 % of control, the T/C (dose: 120.0 mg/kg/injection, schedule: Q01DX005 (ip), vehicle: saline with Tween-80) was 88 % of control and the T/C (dose: 240.0 mg/kg/injection, schedule: Q01DX005 (ip), vehicle: saline with Tween-80) was 90 % of control.

With `O=S(=O)(NCCSSCCNS(=O)(=O)c1ccc(Cl)cc1)c1ccc(Cl)cc1` the T/C [3] was 92 % of control, the T/C [4] was 91 % of control and the T/C [5] was 88 % of control.

With `CCOC(=O)/C(C#N)=C/Nc1ccncc1` the T/C [1] was 95 % of control and the T/C [2] was 87 % of control.

With `O=C(O)c1ccccc1NCc1ccco1` the T/C (dose: 50.0 mg/kg/injection, schedule: Q01DX005 (ip), vehicle: saline with Tween-80) was 91 % of control, the T/C (dose: 100.0 mg/kg/injection, schedule: Q01DX005 (ip), vehicle: saline with Tween-80) was 96 % of control and the T/C (dose: 200.0 mg/kg/injection, schedule: Q01DX005 (ip), vehicle: saline with Tween-80) was 89 % of control.

In the case of `CC(C)NC(C)C(C)c1ccccc1` (stereo not drawn), the T/C (dose: 25.0 mg/kg/injection, schedule: Q04DX003 (ip), vehicle: saline) is reported as 99 % of control, the T/C (dose: 50.0 mg/kg/injection, schedule: Q01DX001 (ip), vehicle: saline) is reported as 94 % of control and the T/C (dose: 50.0 mg/kg/injection, schedule: Q04DX003 (ip), vehicle: saline) is reported as 100 % of control. The T/C (dose: 100.0 mg/kg/injection, schedule: Q01DX001 (ip), vehicle: saline) was 96 % of control and the T/C (dose: 100.0 mg/kg/injection, schedule: Q04DX003 (ip), vehicle: saline) was 93 % of control.

For `COCCC(=O)NC1CCCC[CH]1[Hg][Cl]` (stereo not drawn), the T/C (dose: 25.0 mg/kg/injection, schedule: Q04DX003 (ip), vehicle: Klucel (hydroxypropylcellulose) (HPC)) was 97 % of control.

With `C=CCn1c(Br)nc2c1c(=O)n(CC)c(=O)n2CC` the T/C (dose: 16.0 mg/kg/injection, schedule: Q01DX009 (ip), vehicle: Klucel (hydroxypropylcellulose) (HPC)) was 107 % of control, the T/C (dose: 32.0 mg/kg/injection, schedule: Q01DX009 (ip), vehicle: Klucel (hydroxypropylcellulose) (HPC)) was 107 % of control and the T/C [3] was 89 % of control. For the same compound, the T/C (dose: 64.0 mg/kg/injection, schedule: Q01DX009 (ip), vehicle: Klucel (hydroxypropylcellulose) (HPC)) was 93 % of control, the T/C [4] was 91 % of control and the T/C [5] was 94 % of control.

In the case of `C=C1C(=O)OC2/C=C(\C)CC(O)/C=C(\C)CC(OC(=O)C3(CO)OC3C)C12` (stereo not drawn), the T/C (dose: 25.0 mg/kg/injection, schedule: Q01DX001 (ip), vehicle: Klucel (hydroxypropylcellulose) (HPC)) is reported as 113 % of control, the T/C (dose: 50.0 mg/kg/injection, schedule: Q01DX001 (ip), vehicle: Klucel (hydroxypropylcellulose) (HPC)) is reported as 101 % of control and the T/C (dose: 100.0 mg/kg/injection, schedule: Q01DX001 (ip), vehicle: Klucel (hydroxypropylcellulose) (HPC)) is reported as 108 % of control.

In the case of `CCCCCN(CCCCC)c1ccc(/C=C/c2ccnc3ccccc23)cc1`, the T/C [3] is reported as 98 % of control and the T/C (dose: 400.0 mg/kg/injection, schedule: Q01DX009 (ip), vehicle: Klucel (hydroxypropylcellulose) (HPC)) is reported as 104 % of control.

In the case of `Cc1nc2ccccc2c(=O)n1-c1ccc(-c2n[nH]c(=S)n2-c2ccccc2)cc1`, the T/C (dose: 50.0 mg/kg/injection, schedule: Q01DX005 (ip), vehicle: Klucel (hydroxypropylcellulose) (HPC)) is reported as 105 % of control, the T/C (dose: 100.0 mg/kg/injection, schedule: Q01DX005 (ip), vehicle: Klucel (hydroxypropylcellulose) (HPC)) is reported as 110 % of control and the T/C (dose: 200.0 mg/kg/injection, schedule: Q01DX005 (ip), vehicle: Klucel (hydroxypropylcellulose) (HPC)) is reported as 102 % of control.
